Molecular target: T1, Phosphodiesterase 5 (PDE5) (Homo sapiens, UniProt O76074)
T1 construct: gene PDE5A
Assay: PDE5 inhibition IC50 (assay details not given)
Assay type: biochemical

| IC50 [nM] | Structure (SMILES) |
| --- | --- |
| 20 | COc1ccc(CNc2c(CO)cnc3c(C4CC4)cc(C#N)cc23)cn1 [4b, 8‐cyclopropyl‐3‐(hydroxymethyl)‐4‐(((6‐methoxypyridin‐3‐yl)methyl)amino)quinoline‐6‐carbonitrile] |
| 0.27 | COc1ccc(CNc2c(CO)cnc3c(C4CC4)cc(C#N)cc23)cc1Cl [7a, 4‐((3‐chloro‐4‐methoxybenzyl)amino)‐8‐cyclopropyl‐3‐(hydroxymethyl)quinoline‐6‐carbonitrile] |

— publication PMC11713119, “Optimizing metabolic stability of phosphodiesterase 5 inhibitors: Discovery of a potent N‐(pyridin‐3‐ylmethyl)quinoline derivative targeting synaptic plasticity” (Alzheimer's & Dementia, 2025)
